For nine molecules, AC50 results are on record in ChEMBL document CHEMBL5291721, “A preclinical secondary pharmacology resource illuminates target-adverse drug reaction associations of marketed drugs” (Nat Commun, 2023).

Some targets named below: Melanocortin receptor 4 (Homo sapiens, UniProt P32245); Motilin receptor (Homo sapiens, UniProt O43193); Histamine H3 receptor (Homo sapiens, UniProt Q9Y5N1); Cannabinoid receptor 1 (Homo sapiens, UniProt P21554).
Experiment [1] addresses Kappa-type opioid receptor (Homo sapiens, UniProt P41145).
Experiment [2] has as its target T1, Alpha-2A adrenergic receptor (Homo sapiens, UniProt P08913).
T1 sequence (P08913 whole entry): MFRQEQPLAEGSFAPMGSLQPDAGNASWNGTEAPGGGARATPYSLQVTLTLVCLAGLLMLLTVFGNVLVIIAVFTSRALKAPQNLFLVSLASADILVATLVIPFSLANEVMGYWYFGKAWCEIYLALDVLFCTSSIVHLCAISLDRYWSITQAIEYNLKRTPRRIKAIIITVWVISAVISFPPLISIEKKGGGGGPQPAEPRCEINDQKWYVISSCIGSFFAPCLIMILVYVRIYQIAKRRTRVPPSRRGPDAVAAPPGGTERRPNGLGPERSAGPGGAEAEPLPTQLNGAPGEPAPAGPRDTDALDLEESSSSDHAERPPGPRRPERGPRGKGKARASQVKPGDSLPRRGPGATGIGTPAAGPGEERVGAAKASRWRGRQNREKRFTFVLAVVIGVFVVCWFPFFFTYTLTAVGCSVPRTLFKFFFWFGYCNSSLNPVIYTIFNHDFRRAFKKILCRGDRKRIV
The experiment is classed as functional, cell-based.

Experiment [3] concerns the target T2, Neuropeptide Y receptor type 1 (Homo sapiens, UniProt P25929).
T2 sequence (P25929 whole entry): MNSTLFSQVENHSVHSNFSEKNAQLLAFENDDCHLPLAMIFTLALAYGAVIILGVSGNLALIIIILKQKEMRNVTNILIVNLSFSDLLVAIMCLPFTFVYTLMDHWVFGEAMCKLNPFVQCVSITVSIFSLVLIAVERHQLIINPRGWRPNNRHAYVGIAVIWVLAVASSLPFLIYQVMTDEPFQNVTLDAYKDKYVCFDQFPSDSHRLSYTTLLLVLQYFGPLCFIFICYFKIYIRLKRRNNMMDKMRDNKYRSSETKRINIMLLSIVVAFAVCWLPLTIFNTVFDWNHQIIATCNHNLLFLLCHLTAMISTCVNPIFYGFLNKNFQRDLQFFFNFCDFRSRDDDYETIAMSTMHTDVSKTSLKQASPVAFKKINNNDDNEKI

The target in experiment [4] is T1, Alpha-2A adrenergic receptor. It counts as functional, cell-based. The source holds these as a separate data set.
The target of experiment [5] is Beta-1 adrenergic receptor (Homo sapiens, UniProt P08588). It counts as functional.
Experiment [6] deals with T3, Type-1 angiotensin II receptor (Homo sapiens, UniProt P30556).
T3 sequence (P30556 whole entry): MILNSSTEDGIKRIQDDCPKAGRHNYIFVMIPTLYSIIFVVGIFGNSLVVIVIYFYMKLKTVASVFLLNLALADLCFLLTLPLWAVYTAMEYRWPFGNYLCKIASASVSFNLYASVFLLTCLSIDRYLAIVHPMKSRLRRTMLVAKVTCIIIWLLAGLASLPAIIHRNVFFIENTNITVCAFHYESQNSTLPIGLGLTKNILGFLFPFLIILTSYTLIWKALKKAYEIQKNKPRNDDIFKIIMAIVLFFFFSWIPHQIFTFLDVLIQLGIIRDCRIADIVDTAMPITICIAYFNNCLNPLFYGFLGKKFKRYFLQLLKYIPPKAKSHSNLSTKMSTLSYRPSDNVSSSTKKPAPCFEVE

In another experiment the target is Bile salt export pump (Homo sapiens, UniProt O95342). The experiment is classed as functional.
Experiment [7] has as its target T4, Mu-type opioid receptor (Homo sapiens, UniProt P35372).
For experiment [8], the target named is 5-hydroxytryptamine receptor 2B (Homo sapiens, UniProt P41595). The experiment is classed as functional, cell-based.
For experiment [9], the target named is Neuronal acetylcholine receptor subunit alpha-4 (Homo sapiens, UniProt P43681).
Experiment [10] deals with Glutamate receptor ionotropic, NMDA 1 (Rattus norvegicus, UniProt P35439).
The target of a further experiment is T5, Thromboxane A2 receptor (Homo sapiens, UniProt P21731).
T5 sequence (P21731 whole entry): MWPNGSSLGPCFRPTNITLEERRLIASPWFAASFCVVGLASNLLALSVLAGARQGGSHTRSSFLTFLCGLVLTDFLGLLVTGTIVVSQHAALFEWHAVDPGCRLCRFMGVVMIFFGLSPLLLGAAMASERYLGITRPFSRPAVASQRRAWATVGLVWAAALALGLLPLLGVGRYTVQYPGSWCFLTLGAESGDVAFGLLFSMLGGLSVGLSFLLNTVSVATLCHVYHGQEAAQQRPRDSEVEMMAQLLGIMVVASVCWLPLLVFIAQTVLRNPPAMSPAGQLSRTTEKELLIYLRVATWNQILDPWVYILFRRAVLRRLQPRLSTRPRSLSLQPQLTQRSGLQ
It counts as functional, cell-based.

Experiment [11] concerns the target T4, Mu-type opioid receptor. This is another data set of the same source.
Experiment [12] deals with 3',5'-cyclic-AMP phosphodiesterase 4A (Homo sapiens, UniProt P27815). The experiment is classed as functional.
Experiment [13] has as its target cGMP-inhibited 3',5'-cyclic phosphodiesterase 3A (Homo sapiens, UniProt Q14432). It counts as functional.
Another experiment concerns the target Prothrombin (Homo sapiens, UniProt P00734). The experiment is classed as functional.
Experiment [14] has as its target Prostaglandin G/H synthase 1 (Homo sapiens, UniProt P23219). The experiment is classed as functional.
Further: assay procedure not described here.

Chain of Kappa-type opioid receptor (P41145 whole entry): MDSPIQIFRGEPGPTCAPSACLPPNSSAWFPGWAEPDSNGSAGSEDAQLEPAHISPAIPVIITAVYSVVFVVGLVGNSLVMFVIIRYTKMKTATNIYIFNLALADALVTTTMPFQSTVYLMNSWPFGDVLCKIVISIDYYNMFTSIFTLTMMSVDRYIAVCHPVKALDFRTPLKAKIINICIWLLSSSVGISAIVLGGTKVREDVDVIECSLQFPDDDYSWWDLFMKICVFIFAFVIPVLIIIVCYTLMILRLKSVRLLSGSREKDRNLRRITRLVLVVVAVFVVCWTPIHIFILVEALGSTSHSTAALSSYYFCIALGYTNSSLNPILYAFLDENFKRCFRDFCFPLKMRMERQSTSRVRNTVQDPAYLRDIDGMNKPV
Chain of Motilin receptor (O43193 whole entry): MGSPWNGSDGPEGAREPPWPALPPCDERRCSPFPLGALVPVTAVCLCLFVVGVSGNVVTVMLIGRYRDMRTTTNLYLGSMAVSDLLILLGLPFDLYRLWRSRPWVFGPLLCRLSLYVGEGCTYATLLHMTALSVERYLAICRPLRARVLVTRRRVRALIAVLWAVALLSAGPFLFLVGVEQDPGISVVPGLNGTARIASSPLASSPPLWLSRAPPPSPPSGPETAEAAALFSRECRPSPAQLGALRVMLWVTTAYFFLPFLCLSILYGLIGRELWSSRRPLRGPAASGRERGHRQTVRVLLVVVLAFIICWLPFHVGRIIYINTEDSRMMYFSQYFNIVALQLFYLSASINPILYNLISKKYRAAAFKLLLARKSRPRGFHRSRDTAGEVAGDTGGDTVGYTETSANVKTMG
T4 sequence (P35372 whole entry): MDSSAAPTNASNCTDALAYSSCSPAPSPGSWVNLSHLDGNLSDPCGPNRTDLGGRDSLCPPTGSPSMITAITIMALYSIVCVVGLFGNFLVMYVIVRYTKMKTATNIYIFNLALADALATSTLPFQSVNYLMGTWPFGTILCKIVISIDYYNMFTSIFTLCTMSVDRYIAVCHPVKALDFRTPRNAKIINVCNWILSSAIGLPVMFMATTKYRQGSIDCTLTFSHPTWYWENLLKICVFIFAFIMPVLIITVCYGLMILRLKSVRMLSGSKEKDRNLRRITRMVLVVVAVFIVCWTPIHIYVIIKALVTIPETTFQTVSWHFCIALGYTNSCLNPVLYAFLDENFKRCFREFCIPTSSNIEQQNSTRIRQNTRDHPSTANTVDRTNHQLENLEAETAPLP
Chain of Neuronal acetylcholine receptor subunit alpha-4 (P43681 whole entry): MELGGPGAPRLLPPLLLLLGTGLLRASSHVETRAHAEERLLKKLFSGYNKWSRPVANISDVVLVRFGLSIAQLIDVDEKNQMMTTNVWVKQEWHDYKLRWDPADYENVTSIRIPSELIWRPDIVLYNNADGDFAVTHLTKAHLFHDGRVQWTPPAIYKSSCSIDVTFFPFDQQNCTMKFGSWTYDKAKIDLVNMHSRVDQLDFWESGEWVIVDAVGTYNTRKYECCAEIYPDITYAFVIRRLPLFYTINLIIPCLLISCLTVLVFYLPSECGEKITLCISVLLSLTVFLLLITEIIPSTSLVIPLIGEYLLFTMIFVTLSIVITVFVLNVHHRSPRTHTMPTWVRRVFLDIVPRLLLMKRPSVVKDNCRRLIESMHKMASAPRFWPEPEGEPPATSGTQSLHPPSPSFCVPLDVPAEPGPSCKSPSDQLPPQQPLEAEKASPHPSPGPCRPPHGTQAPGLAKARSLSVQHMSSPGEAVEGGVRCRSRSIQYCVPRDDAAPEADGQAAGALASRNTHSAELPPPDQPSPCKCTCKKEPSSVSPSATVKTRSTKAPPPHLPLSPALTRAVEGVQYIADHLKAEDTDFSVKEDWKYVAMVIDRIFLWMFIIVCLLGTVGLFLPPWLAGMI
Chain of 3',5'-cyclic-AMP phosphodiesterase 4A (P27815 whole entry): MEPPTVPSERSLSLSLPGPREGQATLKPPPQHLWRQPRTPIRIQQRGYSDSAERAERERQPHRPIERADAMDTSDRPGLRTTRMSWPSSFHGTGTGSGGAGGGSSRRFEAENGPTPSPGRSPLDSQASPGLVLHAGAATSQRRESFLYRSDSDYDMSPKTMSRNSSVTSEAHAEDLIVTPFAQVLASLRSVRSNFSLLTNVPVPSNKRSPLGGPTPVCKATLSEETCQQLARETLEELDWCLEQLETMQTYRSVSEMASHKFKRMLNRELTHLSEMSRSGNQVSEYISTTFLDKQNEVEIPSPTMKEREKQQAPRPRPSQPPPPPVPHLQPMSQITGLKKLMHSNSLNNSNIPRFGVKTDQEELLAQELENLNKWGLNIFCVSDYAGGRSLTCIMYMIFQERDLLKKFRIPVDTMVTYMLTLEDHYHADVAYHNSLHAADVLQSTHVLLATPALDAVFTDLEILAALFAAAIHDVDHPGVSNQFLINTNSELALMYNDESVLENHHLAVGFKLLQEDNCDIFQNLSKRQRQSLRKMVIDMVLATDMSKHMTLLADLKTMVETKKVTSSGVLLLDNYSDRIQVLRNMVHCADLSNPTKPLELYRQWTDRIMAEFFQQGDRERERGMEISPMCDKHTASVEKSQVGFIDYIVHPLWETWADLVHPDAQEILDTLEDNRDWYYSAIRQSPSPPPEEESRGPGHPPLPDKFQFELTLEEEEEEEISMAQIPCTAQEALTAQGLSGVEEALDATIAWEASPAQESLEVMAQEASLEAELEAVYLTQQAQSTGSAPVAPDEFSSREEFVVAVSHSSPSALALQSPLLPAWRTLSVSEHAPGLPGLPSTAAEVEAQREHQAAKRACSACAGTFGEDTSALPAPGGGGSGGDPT
Chain of Cannabinoid receptor 1 (P21554 whole entry): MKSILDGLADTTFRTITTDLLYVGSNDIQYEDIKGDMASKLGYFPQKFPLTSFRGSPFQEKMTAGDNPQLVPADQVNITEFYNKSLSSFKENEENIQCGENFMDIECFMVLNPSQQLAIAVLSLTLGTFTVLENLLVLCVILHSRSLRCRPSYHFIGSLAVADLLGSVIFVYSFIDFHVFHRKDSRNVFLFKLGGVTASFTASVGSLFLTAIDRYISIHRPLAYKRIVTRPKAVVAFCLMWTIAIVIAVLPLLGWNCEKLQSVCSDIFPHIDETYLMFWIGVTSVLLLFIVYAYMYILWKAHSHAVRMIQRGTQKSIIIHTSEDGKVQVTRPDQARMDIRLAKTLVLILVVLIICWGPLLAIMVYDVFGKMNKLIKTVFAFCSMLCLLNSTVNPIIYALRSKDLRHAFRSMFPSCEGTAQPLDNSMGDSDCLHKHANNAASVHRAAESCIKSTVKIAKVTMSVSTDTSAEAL
Chain of cGMP-inhibited 3',5'-cyclic phosphodiesterase 3A (Q14432 whole entry): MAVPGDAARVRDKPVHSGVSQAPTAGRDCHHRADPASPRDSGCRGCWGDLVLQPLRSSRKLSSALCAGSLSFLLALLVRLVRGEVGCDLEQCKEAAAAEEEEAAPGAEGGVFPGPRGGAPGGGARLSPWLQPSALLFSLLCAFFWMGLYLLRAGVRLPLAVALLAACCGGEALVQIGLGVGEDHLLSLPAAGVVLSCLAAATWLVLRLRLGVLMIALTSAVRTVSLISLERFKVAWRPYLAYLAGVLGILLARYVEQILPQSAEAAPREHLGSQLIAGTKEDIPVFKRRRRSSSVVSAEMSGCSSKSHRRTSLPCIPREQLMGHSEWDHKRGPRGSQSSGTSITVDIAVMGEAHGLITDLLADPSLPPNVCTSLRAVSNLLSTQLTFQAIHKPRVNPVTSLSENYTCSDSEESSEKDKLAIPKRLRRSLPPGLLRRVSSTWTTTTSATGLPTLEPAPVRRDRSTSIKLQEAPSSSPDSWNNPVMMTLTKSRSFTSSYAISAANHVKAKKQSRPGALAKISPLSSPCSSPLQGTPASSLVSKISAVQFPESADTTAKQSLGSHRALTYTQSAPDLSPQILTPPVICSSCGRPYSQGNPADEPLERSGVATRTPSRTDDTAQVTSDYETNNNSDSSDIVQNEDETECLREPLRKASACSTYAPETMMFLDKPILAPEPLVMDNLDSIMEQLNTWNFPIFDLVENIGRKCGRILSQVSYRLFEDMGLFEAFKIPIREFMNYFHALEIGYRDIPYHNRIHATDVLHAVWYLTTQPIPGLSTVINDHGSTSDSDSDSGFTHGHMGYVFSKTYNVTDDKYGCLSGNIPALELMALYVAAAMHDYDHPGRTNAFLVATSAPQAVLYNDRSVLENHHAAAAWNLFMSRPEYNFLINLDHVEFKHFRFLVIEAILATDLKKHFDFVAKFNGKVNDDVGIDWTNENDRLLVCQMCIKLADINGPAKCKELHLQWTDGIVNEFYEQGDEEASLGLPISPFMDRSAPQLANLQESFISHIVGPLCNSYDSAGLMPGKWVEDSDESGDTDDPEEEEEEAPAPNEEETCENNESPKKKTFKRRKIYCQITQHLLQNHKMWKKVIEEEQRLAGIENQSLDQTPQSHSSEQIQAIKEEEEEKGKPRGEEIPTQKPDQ
Chain of Beta-1 adrenergic receptor (P08588 whole entry): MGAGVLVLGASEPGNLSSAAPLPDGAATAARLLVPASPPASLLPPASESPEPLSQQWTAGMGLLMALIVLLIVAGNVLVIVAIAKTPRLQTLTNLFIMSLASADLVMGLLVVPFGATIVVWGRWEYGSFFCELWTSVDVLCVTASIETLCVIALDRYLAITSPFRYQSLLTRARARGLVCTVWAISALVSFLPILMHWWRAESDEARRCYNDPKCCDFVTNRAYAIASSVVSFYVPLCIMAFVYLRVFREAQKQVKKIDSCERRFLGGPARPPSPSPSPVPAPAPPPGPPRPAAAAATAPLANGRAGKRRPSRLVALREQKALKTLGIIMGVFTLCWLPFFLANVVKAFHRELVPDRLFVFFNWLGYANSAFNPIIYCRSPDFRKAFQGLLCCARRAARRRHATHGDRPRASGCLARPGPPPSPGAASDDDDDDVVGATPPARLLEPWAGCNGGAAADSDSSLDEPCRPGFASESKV

For `NCCCCCC(=O)O` [AMINOCAPROIC ACID], the AC50 (in experiment [1]; in experiment [2]; on Melanocortin receptor 4; in experiment [3]; in experiment [4]; on Motilin receptor) was greater than 10 µM in each case. The concentration at half-maximal activity (AC50) in experiment [5] is greater than 10 µM; on Histamine H3 receptor, greater than 10 µM; in [6], greater than 10 µM; at Bile salt export pump it was greater than 300 µM; at Cannabinoid receptor 1 it was greater than 10 µM; on Mu-type opioid receptor [7] it was greater than 30 µM. For the same molecule, the half-maximal activity concentration (AC50) in [8], in experiment [9] and in [10] was greater than 10 µM each time.
With `CC(=O)Oc1ccccc1C(=O)O` [ASPIRIN], the half-maximal activity concentration (AC50) at Thromboxane A2 receptor is greater than 30 µM; in experiment [1], greater than 10 µM; in [2], greater than 10 µM; at Melanocortin receptor 4 it was greater than 30 µM; in experiment [3] it was greater than 30 µM; in experiment [4], greater than 10 µM. The concentration at half-maximal activity (AC50) is greater than 10 µM at Motilin receptor; greater than 10 µM in experiment [5]; greater than 30 µM at Mu-type opioid receptor [11]; greater than 30 µM on Histamine H3 receptor; greater than 30 µM in [6]; greater than 30 µM in experiment [12]. The concentration at half-maximal activity (AC50) in experiment [13] was greater than 30 µM; at Bile salt export pump it was greater than 300 µM; at Cannabinoid receptor 1, greater than 10 µM; at Prothrombin, greater than 30 µM; at Mu-type opioid receptor [7], greater than 30 µM; in [8], greater than 10 µM. Besides, the AC50 in [9] and in experiment [10] was greater than 10 µM in each case.
Turning to `C[C@H](CS)C(=O)N1CCC[C@H]1C(=O)O` [CAPTOPRIL], the concentration at half-maximal activity (AC50) in experiment [1] was greater than 10 µM; in experiment [2], greater than 10 µM; on Melanocortin receptor 4 it was greater than 30 µM; in experiment [3] it was greater than 30 µM; in [4], greater than 10 µM; at Motilin receptor it was greater than 10 µM. The concentration at half-maximal activity (AC50) in experiment [5] is greater than 10 µM; at Histamine H3 receptor it was greater than 10 µM; in experiment [6] it was greater than 30 µM; on Bile salt export pump, greater than 300 µM; at Cannabinoid receptor 1, greater than 10 µM; at Mu-type opioid receptor [7], greater than 30 µM. Moreover, the AC50 in experiment [8], in experiment [9] and in experiment [10] was greater than 10 µM each time.
Consider `CN(C)CCCC1(c2ccc(F)cc2)OCc2cc(C#N)ccc21` (stereo not given) [CITALOPRAM], for which the AC50 is greater than 30 µM on Thromboxane A2 receptor; greater than 10 µM in [1]; greater than 10 µM in [2]; greater than 30 µM at Melanocortin receptor 4; greater than 30 µM in experiment [3]; greater than 10 µM in [4]. Also, the AC50 on Motilin receptor is greater than 10 µM; in experiment [5] it was greater than 10 µM; in experiment [14], greater than 30 µM; at Histamine H3 receptor it was greater than 10 µM; in [6], greater than 30 µM; in [12], greater than 30 µM. Moreover, the AC50 in experiment [13] was greater than 30 µM; at Bile salt export pump, greater than 300 µM; on Cannabinoid receptor 1, greater than 10 µM; on Prothrombin, greater than 30 µM; in experiment [8] it was greater than 30 µM; in [10] it was greater than 10 µM.
On to `CCN(CCO)CCCC(C)Nc1ccnc2cc(Cl)ccc12` (stereo not given) [HYDROXYCHLOROQUINE], for which the half-maximal activity concentration (AC50) (in experiment [1]; in experiment [2]; on Melanocortin receptor 4; in [3]; in experiment [4]; at Motilin receptor) was greater than 10 µM each time. Besides, the AC50 was greater than 10 µM in experiment [6]; greater than 300 µM on Bile salt export pump; greater than 10 µM on Cannabinoid receptor 1; greater than 30 µM on Mu-type opioid receptor [7]; greater than 10 µM in experiment [8]; greater than 10 µM in experiment [9]. The concentration at half-maximal activity (AC50) in [10] was greater than 10 µM.
Turning to `O=C(c1ccccc1)c1ccc2n1CCC2C(=O)O` (stereo not given) [KETOROLAC], the AC50 in experiment [1] was greater than 30 µM; in experiment [2], greater than 30 µM; at Melanocortin receptor 4, greater than 10 µM; in experiment [3] it was greater than 10 µM; in [4] it was greater than 30 µM; at Motilin receptor it was greater than 10 µM. In addition, the AC50 is greater than 10 µM in experiment [5]; greater than 10 µM at Histamine H3 receptor; greater than 10 µM in experiment [6]; greater than 300 µM at Bile salt export pump; greater than 30 µM on Cannabinoid receptor 1; greater than 30 µM on Mu-type opioid receptor [7]. The AC50 in experiment [8] was greater than 30 µM; in [9] it was greater than 10 µM; in experiment [10], greater than 30 µM.
Regarding `Nc1nnc(-c2cccc(Cl)c2Cl)c(N)n1` [LAMOTRIGINE], the AC50 in experiment [1] is greater than 10 µM; in experiment [2] it was greater than 10 µM; on Melanocortin receptor 4, greater than 30 µM; in experiment [3] it was greater than 30 µM; in experiment [4] it was greater than 10 µM; at Motilin receptor, greater than 10 µM. For the same molecule, the AC50 in [5] is greater than 10 µM; at Histamine H3 receptor, greater than 10 µM; in [6], greater than 30 µM; at Bile salt export pump, greater than 300 µM; on Cannabinoid receptor 1, greater than 10 µM; on Mu-type opioid receptor [7], greater than 30 µM. Moreover, the half-maximal activity concentration (AC50) in [8], in experiment [9] and in experiment [10] was greater than 10 µM throughout.
Regarding `CCC1(c2ccccc2)C(=O)NCNC1=O` [PRIMIDONE], the AC50 (in [1]; in experiment [2]; on Melanocortin receptor 4; in experiment [3]; in [4]; on Motilin receptor) was greater than 10 µM throughout. For the same molecule, the AC50 in experiment [5] was greater than 10 µM; in experiment [6] it was greater than 30 µM; at Bile salt export pump, greater than 300 µM; at Cannabinoid receptor 1, greater than 10 µM; at Mu-type opioid receptor [7], greater than 30 µM; in experiment [8] it was greater than 10 µM. Also, the AC50 in experiment [9] and in [10] was greater than 10 µM in each case.
Consider `Cc1c(C)c2c(c(C)c1O)CCC(C)(COc1ccc(CC3SC(=O)NC3=O)cc1)O2` (stereo not given) [TROGLITAZONE], for which the half-maximal activity concentration (AC50) in experiment [1] was 18 µM; in [2], greater than 30 µM; at Melanocortin receptor 4, greater than 30 µM; in experiment [3], greater than 30 µM; in experiment [4], greater than 30 µM; on Motilin receptor, greater than 30 µM. In addition, the concentration at half-maximal activity (AC50) in experiment [5] was 20 µM; at Mu-type opioid receptor [11], 14 µM; in experiment [14], 5.93 µM; on Histamine H3 receptor, greater than 30 µM; in [6], 15.5 µM; in [12], 4.9 µM. For the same molecule, the AC50 in [13] was 11 µM; at Bile salt export pump, 5.01 µM; on Cannabinoid receptor 1 it was greater than 30 µM; at Prothrombin, greater than 30 µM; at Mu-type opioid receptor [7], greater than 30 µM; in experiment [8] it was greater than 30 µM. The AC50 in experiment [9] and in [10] was greater than 30 µM in each case.
